Data on 33 compounds can be found in patent US7662832B2, “Pyrrolo[2,3-c]pyridine derivatives and processes for the preparation thereof” (priority 2004, dated 2010).

Counter-ions that a name gives are not always drawn.

Chain of Proton Pump (H^+/K^+-ATPase) (P19156 2-1034 limits assumed): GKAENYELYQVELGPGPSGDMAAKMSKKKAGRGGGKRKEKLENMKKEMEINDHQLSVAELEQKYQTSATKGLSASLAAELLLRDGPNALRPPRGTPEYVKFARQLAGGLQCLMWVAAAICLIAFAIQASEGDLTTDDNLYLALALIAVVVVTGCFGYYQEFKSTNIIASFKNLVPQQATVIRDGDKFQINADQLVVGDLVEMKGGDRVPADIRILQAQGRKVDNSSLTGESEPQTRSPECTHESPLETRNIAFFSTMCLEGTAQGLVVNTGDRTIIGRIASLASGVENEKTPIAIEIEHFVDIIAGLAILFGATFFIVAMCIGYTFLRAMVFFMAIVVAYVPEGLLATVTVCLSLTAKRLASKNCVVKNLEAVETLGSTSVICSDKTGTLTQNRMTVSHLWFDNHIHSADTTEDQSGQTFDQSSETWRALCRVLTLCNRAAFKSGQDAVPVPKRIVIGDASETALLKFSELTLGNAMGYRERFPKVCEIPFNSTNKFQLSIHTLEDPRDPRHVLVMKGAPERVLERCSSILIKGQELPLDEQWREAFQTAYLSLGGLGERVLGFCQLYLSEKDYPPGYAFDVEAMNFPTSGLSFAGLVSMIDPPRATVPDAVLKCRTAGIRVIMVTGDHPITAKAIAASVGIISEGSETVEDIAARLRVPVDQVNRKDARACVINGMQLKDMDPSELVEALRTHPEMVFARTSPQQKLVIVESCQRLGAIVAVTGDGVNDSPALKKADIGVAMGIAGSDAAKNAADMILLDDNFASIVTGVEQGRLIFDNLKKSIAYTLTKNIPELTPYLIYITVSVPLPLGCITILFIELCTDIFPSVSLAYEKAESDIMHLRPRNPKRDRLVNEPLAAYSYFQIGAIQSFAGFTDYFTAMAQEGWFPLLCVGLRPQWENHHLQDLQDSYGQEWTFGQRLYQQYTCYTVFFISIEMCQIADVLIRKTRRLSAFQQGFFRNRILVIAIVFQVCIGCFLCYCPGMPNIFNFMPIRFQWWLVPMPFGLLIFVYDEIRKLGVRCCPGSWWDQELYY
Chain of Proton Pump (H^+/K^+-ATPase) (P18434 whole entry partner): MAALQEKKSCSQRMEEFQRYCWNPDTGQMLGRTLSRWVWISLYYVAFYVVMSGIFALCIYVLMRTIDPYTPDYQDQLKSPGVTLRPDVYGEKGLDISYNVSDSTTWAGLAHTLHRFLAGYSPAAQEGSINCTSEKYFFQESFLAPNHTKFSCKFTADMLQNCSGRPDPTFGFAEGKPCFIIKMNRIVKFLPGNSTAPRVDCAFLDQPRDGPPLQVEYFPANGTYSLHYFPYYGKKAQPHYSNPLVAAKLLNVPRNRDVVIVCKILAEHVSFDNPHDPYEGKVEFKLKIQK

This test has as its target Proton Pump (H^+/K^+-ATPase) (Sus scrofa, UniProt P19156). The test can be described thus: Inhibitory effects on proton pump (H^+/K^+-ATPase) activity. It counts as biochemical. The note with it: hog gastric vesicles; K^+ stimulated H^+/K^+-ATPase activity; 30 minutes at 37° C.
The term IC50 denotes the concentration that gives 50% inhibition. A higher IC50 goes with a need for much substance. The compound `Cc1c(C)n(Cc2ccccc2)c2c(-c3ccc(Cl)cc3)nccc12` [Example 301, 1-benzyl-7-(4-chlorophenyl)-2,3-dimethyl-1H-pyrrolo[2,3-c]pyridine hydrochloride] had an IC50 of 384 nM.
`COc1cccc(Cn2c(C)c(C)c3ccnc(CN(C)c4ccc(F)cc4)c32)c1` [Example 116, N-(4-fluorophenyl)-N-[1-(3-methoxybenzyl)-2,3-dimethyl-1H-pyrrolo[2,3-c]pyridin-7-ylmethyl]-methylamine hydrochloride] came in with an IC50 of 48 nM.
As for `Cc1c(C)n(Cc2ccccc2)c2c(CNc3ccc(F)cc3)nccc12` [Example 89, N-(1-benzyl-2,3-dimethyl-1H-pyrrolo[2,3-c]pyridin-7-ylmethyl)-4-fluorophenylamine hydrochloride], the IC50 amounted to 321 nM.
The result for `Cc1c(C)n(CC(C)C)c2c(N(C)Cc3ccc(F)cc3)nccc12` [Example 149, 7-[N-(4-fluorobenzyl)-N-methyl]amino-1-isobutyl-2,3-dimethyl-1H-pyrrolo[2,3-c]pyridine hydrochloride] reads 210 nM; that for `C=CCn1c(C)c(C)c2cc(C#N)nc(N3CCc4ccccc4C3)c21` [Example 684, 1-allyl-7-(3,4-dihydro-1H-isoquinolin-2-yl)-2,3-dimethyl-1H-pyrrolo[2,3-c]pyridin-5-carbonitrile], 490 nM.
The result for `CCn1c(C)c(C)c2cc(C(=O)N3CCCCC3)nc(N3CCc4ccccc4C3)c21` [Example 787, [7-(3,4-dihydro-1H-isoquinolin-2-yl)-1-ethyl-2,3-dimethyl-1H-pyrrolo[2,3-c]pyridin-5-yl]-(piperidin-1-yl)-methanone hydrochloride] reads 1.1 nM.
As to `COCCn1c(C)c(C)c2ccnc(NCc3ccccc3C)c21` [Example 213, 1-(2-methoxyethyl)-2,3-dimethyl-7-(2-methylbenzylamino)-1H-pyrrolo[2,3-c]pyridine hydrochloride], the IC50 was found to be 310 nM.
The result for `CCN1CCN(C(=O)c2cc3c(C)c(C)n(CC)c3c(N3CCc4ccccc4C3)n2)CC1` [Example 826, [7-(3,4-dihydro-1H-isoquinolin-2-yl)-1-ethyl-2,3-dimethyl-1H-pyrrolo[2,3-c]pyridin-5-yl]-(4-ethylpiperazin-1-yl)-methanone hydrochloride] reads 16 nM; that for `Cc1c(C)n(CC(C)C)c2c(N3CCc4ccccc4C3)nc(C(=O)N3CCN(C)CC3)cc12` [Example 833, [7-(3,4-dihydro-1H-isoquinolin-2-yl)-1-isobutyl-2,3-dimethyl-1H-pyrrolo[2,3-c]pyridin-5-yl]-(4-methylpiperazin-1-yl)-methanone hydrochloride], 43 nM.
The compound `Cc1c(CC#N)c2ccnc(N3CCc4ccccc4C3)c2n1Cc1ccccc1` [Example 624, [1-benzyl-7-(3,4-dihydro-1H-isoquinolin-2-yl)-2-methyl-1H -pyrrolo[2,3-c]pyridin-3-yl]-acetonitrile hydrochloride] gave an IC50 of 10 nM.
`Cc1c(C)n(CC(C)C)c2c(NCc3ccccc3)nccc12` [Example 184, 7-benzylamino-1-isobutyl-2,3-dimethyl-1H-pyrrolo[2,3-c]pyridine hydrochloride] displayed an IC50 of 240 nM.
In turn, `Cc1c(C)n(CC2CCC2)c2c(N3CCc4ccccc4C3)nc(C(=O)N3CCN(C)CC3)cc12` [Example 830, [1-cyclobutylmethyl-7-(3,4-dihydro-1H-isoquinolin-2-yl)-2,3-dimethyl-1H-pyrrolo[2,3-c]pyridin-5-yl]-(4-methylpiperazin-1-yl)-methanone hydrochloride] showed an IC50 of 44 nM.
On to `Cc1ccc(Cn2c(C)c(C)c3ccnc(CCc4ccccc4)c32)cc1` [Example 444, 2,3-dimethyl-1-(4-methylbenzyl)-7-phenethyl-1H-pyrrolo[2,3-c]pyridine hydrochloride], for which inhibition was half-maximal at 122 nM (IC50). This IC50 lies about 2.8-fold higher than the previous one.
The result for `Cc1c(C)n(Cc2ccc(OC(F)(F)F)cc2)c2c(N3CCc4ccccc4C3)nccc12` [Example 479, 1-(4-trifluoromethoxybenzyl)-7-(1,2,3,4-tetrahydroisoquinolin-2-yl)-2,3-dimethyl-1H-pyrrolo[2,3-c]pyridine hydrochloride] reads 1140 nM; that for `C#CCn1c(C)c(C)c2cc(C(=O)N3CCCCC3)nc(N3CCc4ccccc4C3)c21` [Example 802, [7-(3,4-dihydro-1H-isoquinolin-2-yl)-2,3-dimethyl-1-(prop-2-ynyl)-1H-pyrrolo[2,3-c]pyridin-5-yl]-(piperidin-1-yl)-methanone hydrochloride], 80 nM; that for `Cc1c(C)n(Cc2cccc(F)c2)c2c(N3CCc4ccccc4C3)nc(CO)cc12` [Example 851, 7-(3,4-dihydro-1H-isoquinolin-2-yl)-1-(3-fluorobenzyl)-2,3-dimethyl-1H-pyrrolo[2,3-c]pyridin-5-yl]-methanol hydrochloride], 32 nM.
`Cc1c(C)n(Cc2cccc(Cl)c2)c2c(N3CCc4ccccc4C3)nc(-c3nnnn3C)cc12` [Example 853, 2-[1-(3-chlorobenzyl)-2,3-dimethyl-5-(1-methyl-1H-tetrazol-5-yl)-1H-pyrrolo[2,3-c]pyridin-7-yl]-1,2,3,4-tetrahydroisoquinoline] gave an IC50 of 36 nM.
`Cc1[nH]c2c(N3CCc4ccccc4C3C)nccc2c1C` (stereo not drawn) [Example 560, 2-(2,3-dimethyl-1H-pyrrolo[2,3-c]pyridin-7-yl)-1-methyl-1,2,3,4-tetrahydroisoquinoline sodium] registered an IC50 of 17 nM.
The figure for `CCn1c(C)c(C)c2ccnc(N3CCc4ccc(F)cc4C3C)c21` (stereo not drawn) [Example 543, 2-(1-ethyl-2,3-dimethyl-1H-pyrrolo[2,3-c]pyridin-7-yl)-7-fluoro-1-methyl-1,2,3,4-tetrahydroisoquinoline hydrochloride] is 110 nM.
The result for `Cc1c(C)n(Cc2ccccc2)c2c(N3CCc4ccccc4C3)nc(C(=O)O)cc12` [Example 744, 1-benzyl-7-(3,4-dihydro-1H-isoquinolin-2-yl)-2,3-dimethyl-1H-pyrrolo[2,3-c]pyridin-5-carboxylate sodium] reads 130 nM; that for `Cc1c(C)n(Cc2ccccc2)c2c(N3CCc4ccccc4C3)nc(C(=O)N3CCCCC3)cc12` [Example 788, [1-benzyl-7-(3,4-dihydro-1H-isoquinolin-2-yl)-2,3-dimethyl-1H-pyrrolo[2,3-c]pyridin-5-yl]-(piperidin-1-yl)-methanone hydrochloride], 52 nM; that for `Cc1c(C)n(Cc2cccc(F)c2)c2c(N3CCc4ccccc4C3)nc(CC#N)cc12` [Example 884, [7-(3,4-dihydro-1H-isoquinolin-2-yl)-1-(3-fluorobenzyl)-2,3-dimethyl-1H-pyrrolo[2,3-c]pyridin-5-yl]-acetonitrile hydrochloride], 216 nM.
The figure for `Cc1cccc(Cn2c(C)c(C)c3cc(C(=O)N4CCN(C)CC4)nc(N4CCc5ccccc5C4)c32)c1` [Example 820, [7-(3,4-dihydro-1H-isoquinolin-2-yl)-2,3-dimethyl-1-(3-methylbenzyl)-1H-pyrrolo[2,3-c]pyridin-5-yl]-(4-methylpiperazin-1-yl)-methanone hydrochloride] is 37 nM; for `C=Cc1ccc(-c2nccc3c(C)c(C)n(CC)c23)cc1` [Example 251, 1-ethyl-2,3-dimethyl-7-(4-vinylphenyl)-1H-pyrrolo[2,3-c]pyridine hydrochloride] it is 460 nM.
In the case of `C=CCn1c(C)c(C)c2cc(C(=O)NCC(F)(F)F)nc(N3CCc4ccccc4C3)c21` [Example 762, 1-allyl-7-(3,4-dihydro-1H-isoquinolin-2-yl)-2,3-dimethyl-N-(2,2,2-trifluoroethyl)-1H-pyrrolo[2,3-c]pyridin-5-carboxamide], inhibition was half-maximal at 350 nM (IC50).
`COc1ccc(Cn2c(C)c(C)c3ccnc(N4CCc5ccccc5C4C)c32)cc1` (stereo not drawn) [Example 558, 2-[1-(4-methoxybenzyl)-2,3-dimethyl-1H-pyrrolo[2,3-c]pyridin-7-yl]-1-methyl-1,2,3,4-tetrahydroisoquinoline hydrochloride] registered an IC50 of 430 nM.
In the case of `C#CCn1c(C)c(C)c2ccnc(-c3ccc4ccccc4c3)c21` [Example 408, 2,3-dimethyl-7-(naphthalen-2-yl)-1-(prop-2-ynyl)-1H-pyrrolo[2,3-c]pyridine hydrochloride], half-maximal inhibition (IC50) was put at 89 nM.
`CSc1ccc(-c2nccc3c(C)c(C)[nH]c23)cc1` [Example 262, 2,3-dimethyl-7-(4-methylsulfanylphenyl)-1H-pyrrolo[2,3-c]pyridine]: the IC50 amounted to 220 nM.
The result for `Cc1c(C)n(CC2CC2)c2c(N3CCc4ccccc4C3)nc(C(=O)N3CCNCC3)cc12` [Example 816, [1-cyclopropylmethyl-7-(3,4-dihydro-1H-isoquinolin-2-yl)-2,3-dimethyl-1H-pyrrolo[2,3-c]pyridin-5-yl]-(piperazin-1-yl)-methanone hydrochloride] reads 9 nM; that for `C=CCn1c(C)c(C)c2cc(N)nc(N3CCc4ccccc4C3)c21` [Example 846, 1-allyl-7-(3,4-dihydro-1H-isoquinolin-2-yl)-2,3-dimethyl-1H-pyrrolo[2,3-c]pyridin-5-amine hydrochloride], 139 nM.
The result for `C=CCn1c(C)c(C)c2cc(C(=O)N3CCN(C)CC3)nc(N3CCc4ccccc4C3)c21` [Example 785, [1-allyl-7-(3,4-dihydro-1H-isoquinolin-2-yl)-2,3-dimethyl-1H-pyrrolo[2,3-c]pyridin-5-yl]-(4-methylpiperazin-1-yl)-methanone hydrochloride] reads 0.7 nM; that for `Cc1ccc(OCc2nccc3c(C)c(C)n(Cc4ccccc4)c23)cc1` [Example 15, 1-benzyl-2,3-dimethyl-7-(p-tolyloxymethyl)-1H-pyrrolo[2,3-c]pyridine hydrochloride], 140 nM; that for `CC(C)=CCn1c(C)c(C)c2ccnc(N3CCc4ccc(F)cc4C3C)c21` (stereo not drawn) [Example 545, 2-[2,3-dimethyl-1-(3-methylbut-2-enyl)-1H-pyrrolo[2,3-c]pyridin-7-yl]-7-fluoro-1-methyl-1,2,3,4-tetrahydroisoquinoline hydrochloride], 190 nM.
